Source: patent US20240408158A1 (LINYI UNIVERSITY, priority 2023, published 2024)

What was measured:
[1] = tested on: mice with hyperuricemia induced by fructose and yeast diet; test: Model of hyperuricemia induced by fructose and yeast diet, serum uric acid; type: in vivo
From the text: 1. Experimental animal: […] At the Experimental Animal Center of Qingdao University, all mice were placed in pathogen free facilities, maintained at appropriate temperature and relative humidity, followed by a 12-hour light and dark cycle, they freely ate and drank and clean bedding was replaced daily. 3. Method of modeling: 36 Balb/c male mice were divided into 6 groups, with 6 mice in each group. They were: […] Dissolving allopurinol and Antarctic red pigment in double distilled water and mixing well. […] Weights of each group of mice from day 0 onwards were recorded. 5. Uric acid testing: At Sam on days 14, 21, 28, and 35, mice were fasted for 12 hours and blood samples from the posterior orbital venous plexus of the mice were collected for uric acid testing. After the blood collection was completed, the blood was left at room temperature for one hour and centrifuged at a speed of 3000 rpm for 5 minutes to obtain a light-yellow upper serum.

[2] = tested on: mice with hyperuricemia; test: Model of hyperuricemia induced by high purine (yeast extract plus oteracil potassium); type: in vivo; conditions: allopurinol treatment group 20 mg/kg gavage, 7 days, 5 mice per group
From the text: 1. Experimental animal: Balb/c male mice, 6-8 weeks old, with weigh of 16-18 g were purchased from Sperford (Beijing) Biotechnology Co., Ltd. At the Experimental Animal Center of Qingdao University, all mice were placed in pathogen free facilities, maintained at appropriate temperature and relative humidity, followed by a 12-hour light and dark cycle, they freely ate and drank, and clean bedding was replaced daily.
3. […] From Day 5 to Day 7, except for the blank control group, the other four groups were given 0.1 ml (6 mg/animal) of oteracil potassium by intraperitoneal injection.

[3] = tested on: mouse bone marrow red cells; conditions: positive control 40 mg/kg BW; P<0.01
Procedure: 3.3 Mammalian red blood cell micronucleus test: 50 healthy, mature mice with weight of 25-30 g were selected, with half male and half female. The mice were randomly divided into 5 groups, 10 mice in each group, and half male and half female in each group. The experiment was conducted with three dose groups of 1.25, 2.5, and 5.0 g/kgBW Samples of 2.5, 5.0, and 10.0 g were weighed and prepared into 40 mL sample solutions using distilled water as the solvent. […] Mice were given test substance by oral gavage at a volume of 20 mL/kgBW, gavaged twice with an interval of 24 hours. Six hours after the second gavage, the animals were euthanized due to cervical dislocation. Sternal bone marrow was taken and made into bone marrow slices, fixed with methanol, and stained with Giemsa.
2000 polychromatic erythrocytes in each animal were observed and a frequency of micronucleus polychromatic erythrocytes (namely, micronucleus frequency) was counted, expressed in thousandths.

[4] = after 14 days, Allopurinol group 20 mg/kg

Oc1ncnc2[nH]ncc12 [allopurinol]
uric acid level ([1]; 21st day, Allopurinol group 20 mg/kg): 247.2 ± 48.98 µmol/L
uric acid level ([1]; 28th day, Allopurinol group 20 mg/kg): 264.9 ± 54.87 µmol/L
uric acid level ([1]; 35th day, Allopurinol group 20 mg/kg): 215.8 ± 37.132 µmol/L
increase of uric acid level compared with the control group [1, 4]: 24.67%
uric acid level lower than in the High uric acid model group [1, 4]: 30.39%
uric acid level ([1]; after 14 days, Allopurinol group 20 mg/kg gavage once a day): 191.5 ± 21.95 µmol/L
deaths [2]: no deaths

O=P1(N(CCCl)CCCl)NCCCO1 (centres unmarked) [cyclophosphamide]
micronucleus frequency compared with negative control group [3]: significantly higher
